The values that follow are results of earlier work, collected in patent publication US7645466B2, “Methods for deriving, isolating, and/or extracting amino acid compositions from Fenugreek seed” (TSI Group Limited, priority 2004, dated 2010).

The data set relates to pancreatic beta cell. Conditions: micromolar concentrations; direct effect on pancreatic beta cell, glucose dependent.

On to `C[C@@H]([C@H](C)O)[C@H](N)C(=O)O` [4-hydroxyisoleucine], for which the glucose-induced insulin secretion result is “stimulate glucose-induced insulin secretion in micromolar concentrations”.
